These results are taken from patent US12116397B2, “IL-IR-I binding polypeptide” (Swedish Orphan Biovitrum AB (publ), priority 2017, dated 2024).

Assay [1] deals with human whole blood. The assay is described as follows: Inhibition of IL-1β induced IL-6 production in whole blood. In kind it is cell-based. The conditions noted are these: 100 pM IL-1β. As to the method: The inhibitory effect of IL-1R-I binding fusion proteins on IL-1β induced IL-6 production in whole blood from individual donors was measured.
Blood from healthy donors was collected 1-3 hours prior to treatment with the IL-1R-I binding fusion proteins (SEQ ID NO:1648-1649). Proteins (IL-1R-I binding fusion proteins or anakinra) were diluted to starting concentration of 500 nM in serum free RPMI (ThermoFisher Scientific, RPMI 1640 Medium, GlutaMAX™ Supplement, Cat. No.: 61870010) and subsequently serially diluted 1:3 in a ten-step dilution series resulting in a concentration range of 500 nM to 25 pM. The IL-1R-I binding fusion polypetides or anakinra were tested in presence of a challenge dose of 100 pM IL-1β. The blood was incubated for 21-23 hours with proteins, followed by harvesting of plasma. Harvested plasma was diluted 2× and IL-6 content was analyzed by using a human IL-6 kit (V-PLEX Human IL-6 Kit Human interleukin-6, MSD) according to manufacturer's recommendations.
IL-6 concentrations (pg/ml) were calculated using a standard curve (provided by the kit) and data was analyzed using XLfit and IC50 values were calculated from the concentration-response curves.

The subject of assay [2] is Normal Human Dermal Fibroblasts (NHDF) cells. The assay is described as follows: Inhibition of IL-1β induced IL-6 production in NHDF cells. In kind it is cell-based. The settings on record: 3.4 pM IL-1β.
Method: The inhibitory effect of IL-1R-I binding fusion proteins on IL-1β induced IL-6 production in Normal Human Dermal Fibroblasts (NHDF) cells was monitored.
Cells were seeded three days prior to treatment with proteins. […] Harvested medium was diluted 41× before IL-6 content was analyzed using a human IL-6 ELISA kit (R&D Systems) according to manufacturer's recommendations. Data was analyzed using XLfit and IC50 values were calculated from concentration-response curves.

Regarding “Kineret: recombinant form of endogenous IL-1Ra denoted anakinra (Kineret)”, the “IL-1β induced IL-6 release in human whole blood” value in assay [1] was “reduced in a concentration-dependent manner”. The “IL-1β induced IL-6 release from NHDF cells” value in assay [2] is “reduced in a concentration-dependent manner”.
